# According to paper PMC11395219 (Molecular Cancer, 2024):
# Target: T1, Vitamin D receptor (VDR) (Homo sapiens, UniProt P11473)
# T1 sequence (P11473 118-427 limits assumed): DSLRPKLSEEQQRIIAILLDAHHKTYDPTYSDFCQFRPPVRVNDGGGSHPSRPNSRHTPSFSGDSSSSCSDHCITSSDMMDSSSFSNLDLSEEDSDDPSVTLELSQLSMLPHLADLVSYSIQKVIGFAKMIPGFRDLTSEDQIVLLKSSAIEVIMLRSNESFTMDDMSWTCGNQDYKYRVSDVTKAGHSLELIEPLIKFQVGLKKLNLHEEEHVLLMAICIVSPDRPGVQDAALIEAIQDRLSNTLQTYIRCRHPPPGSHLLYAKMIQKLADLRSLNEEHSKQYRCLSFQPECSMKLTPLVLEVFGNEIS
# Assay: SPR
# Assay type: binding
structure (smiles),measurement,value
O=c1cc(-c2ccc(O)cc2)oc2c([C@@H]3O[C@H](CO)[C@@H](O)[C@H](O)[C@H]3O)c(O)cc(O)c12 [vitexin],Kd,34.7 µM
